Legend:
[1] = system: Hepatitis C virus; assay: Antiviral activity against HCV genotype 1b harboring wild type NS5B infected in human HuH7 cells assessed as inhibition of viral RNA replication after 5 days by RT-PCR method; type: functional, cell-based, Hepacivirus hominis; settings: Huh-7, 120 h
[2] = Cytotoxicity against human HuH7 cells assessed as inhibition of cell proliferation after 4 days by MTS assay; type: cell-based, Huh-7
[3] = Cytotoxicity against human PBMC assessed as inhibition of cell proliferation after 5 days by MTT assay; type: cell-based
[4] = Cytotoxicity against human CEM cells assessed as inhibition of cell proliferation after 4 days by MTT assay; type: cell-based, CCRF-CEM
[5] = Cytotoxicity against African green monkey Vero cells assessed as inhibition of cell proliferation after 3 days by MTT assay; type: cell-based; settings: chlorocebus sabaeus
[6] = system: Hepatitis C virus; assay: Antiviral activity against HCV genotype 1a infected in human HuH7 cells assessed as inhibition of viral RNA replication after 96 hrs by RT-PCR method; type: functional, cell-based, Hepacivirus hominis; settings: subtype 1a, Huh-7, 96 h
[7] = system: Hepatitis C virus; assay: Antiviral activity against HCV genotype 1b infected in human HuH7 cells assessed as inhibition of viral RNA replication after 96 hrs by RT-PCR method; type: functional, cell-based, Hepacivirus hominis; settings: Huh-7, 96 h
[8] = system: Hepatitis C virus; assay: Antiviral activity against HCV genotype 2a/k infected in human HuH7 cells assessed as inhibition of viral RNA replication after 96 hrs by RT-PCR method; type: functional, cell-based, Hepacivirus hominis; settings: Huh-7, 96 h
[9] = system: Hepatitis C virus; assay: Antiviral activity against HCV genotype 2b infected in human HuH7 cells assessed as inhibition of viral RNA replication after 96 hrs by RT-PCR method; type: functional, cell-based, Hepacivirus hominis; settings: Huh-7, 96 h
[10] = system: Hepatitis C virus; assay: Antiviral activity against HCV genotype 3a infected in human HuH7 cells assessed as inhibition of viral RNA replication after 96 hrs by RT-PCR method; type: functional, cell-based, Hepacivirus hominis; settings: Huh-7, 96 h
[11] = system: Hepatitis C virus; assay: Antiviral activity against HCV genotype 4 infected in human HuH7 cells assessed as inhibition of viral RNA replication after 96 hrs by RT-PCR method; type: functional, cell-based, Hepacivirus hominis; settings: genotype 4, Huh-7, 96 h
[12] = system: Hepatitis C virus; assay: Antiviral activity against HCV genotype 1b harboring NS5B S282T mutant infected in human HuH7 cells assessed as inhibition of viral RNA replication after 4 days by luciferase reporter gene assay; type: functional, cell-based, Hepacivirus hominis; settings: Huh-7, 96 h
[13] = system: Hepatitis C virus; assay: Selectivity ratio of EC50 for HCV genotype 1b harboring NS5B S282T mutant to EC50 for HCV genotype 1b harboring wild type NS5B; type: functional, Hepacivirus hominis
[14] = system: Hepatitis C virus; assay: Selectivity ratio of EC90 for HCV genotype 1b harboring NS5B S282T mutant to EC90 for HCV genotype 1b harboring wild type NS5B; type: functional, Hepacivirus hominis
[15] = system: cytochrome c oxidase subunit 2 DNA (mitochondrial DNA) levels; assay: Mitochondrial toxicity in human HepG2 cells assessed as inhibition of cytochrome c oxidase subunit 2 DNA levels at 50 uM measured on day 14 by RT-PCR method relative to nuclear beta-actin DNA levels; type: cell-based
[16] = system: nuclear DNA levels; assay: Cytotoxicity against human HepG2 cells assessed as inhibition of nuclear DNA levels at 50 uM measured on day 14 by RT-PCR method relative to nuclear beta-actin DNA levels; type: cell-based; settings: read-out: INH
[17] = system: cytochrome c oxidase subunit 2 DNA (mitochondrial DNA) levels; assay: Mitochondrial toxicity in human HepG2 cells assessed as inhibition of cytochrome c oxidase subunit 2 DNA levels measured on day 14 by RT-PCR method; type: cell-based
[18] = system: HepG2; assay: Cytotoxicity against human HepG2 cells assessed as inhibition of nuclear DNA levels measured on day 14 by RT-PCR method; settings: HepG2, 336 h
[19] = system: HepG2; assay: Mitochondrial toxicity in human HepG2 cells assessed as cytochrome c oxidase subunit 2 DNA levels at 10 uM measured on day 14 by RT-PCR method relative to nuclear beta-actin DNA levels; settings: hepg2, 10 µM
[20] = system: HepG2; assay: Mitochondrial toxicity in human HepG2 cells assessed as cytochrome c oxidase subunit 2 DNA levels at 50 uM measured on day 14 by RT-PCR method relative to nuclear beta-actin DNA levels; type: cell-based; settings: hepg2, 50 µM
[21] = biological target: Cytochrome P450 3A4 (Homo sapiens, UniProt P08684); assay: Inhibition of human CYP3A4 using ketoconazole […]; type: ADME
Chain of Cytochrome P450 3A4 (P08684 whole entry): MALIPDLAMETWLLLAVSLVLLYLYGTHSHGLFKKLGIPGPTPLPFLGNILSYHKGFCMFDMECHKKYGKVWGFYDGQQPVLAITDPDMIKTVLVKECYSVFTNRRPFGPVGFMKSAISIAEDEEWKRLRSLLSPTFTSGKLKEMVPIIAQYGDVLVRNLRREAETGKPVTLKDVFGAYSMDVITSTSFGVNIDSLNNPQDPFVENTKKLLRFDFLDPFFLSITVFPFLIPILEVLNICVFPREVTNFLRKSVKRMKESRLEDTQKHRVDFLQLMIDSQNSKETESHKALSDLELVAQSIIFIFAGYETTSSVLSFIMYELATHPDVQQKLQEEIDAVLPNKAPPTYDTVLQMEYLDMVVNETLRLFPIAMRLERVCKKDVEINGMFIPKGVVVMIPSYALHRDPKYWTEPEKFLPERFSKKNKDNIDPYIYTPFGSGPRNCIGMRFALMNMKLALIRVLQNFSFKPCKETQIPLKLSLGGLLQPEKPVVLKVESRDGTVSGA

[22] = biological target: Cytochrome P450 2C9 (Homo sapiens, UniProt P11712); assay: Inhibition of human CYP2C9 using sulfaphenazole […]; type: ADME
Chain of Cytochrome P450 2C9 (P11712 whole entry): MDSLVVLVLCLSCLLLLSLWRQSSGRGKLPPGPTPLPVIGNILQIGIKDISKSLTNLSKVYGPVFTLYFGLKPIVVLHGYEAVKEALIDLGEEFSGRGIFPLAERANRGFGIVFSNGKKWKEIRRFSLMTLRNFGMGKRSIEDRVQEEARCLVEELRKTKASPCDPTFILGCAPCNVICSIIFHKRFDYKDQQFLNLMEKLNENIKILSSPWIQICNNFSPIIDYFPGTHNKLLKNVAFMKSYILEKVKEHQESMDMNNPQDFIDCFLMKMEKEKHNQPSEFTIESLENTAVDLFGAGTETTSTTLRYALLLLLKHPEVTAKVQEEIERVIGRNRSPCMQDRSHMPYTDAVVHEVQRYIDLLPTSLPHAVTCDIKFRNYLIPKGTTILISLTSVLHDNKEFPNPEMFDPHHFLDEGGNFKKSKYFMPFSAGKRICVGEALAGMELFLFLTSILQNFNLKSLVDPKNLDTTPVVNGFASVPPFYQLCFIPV

[23] = biological target: T1, Cytochrome P450 1A2 (Homo sapiens, UniProt P05177); assay: Inhibition of human CYP1A2 using alpha-naphthoflavone […]; type: ADME
T1 sequence (P05177 whole entry): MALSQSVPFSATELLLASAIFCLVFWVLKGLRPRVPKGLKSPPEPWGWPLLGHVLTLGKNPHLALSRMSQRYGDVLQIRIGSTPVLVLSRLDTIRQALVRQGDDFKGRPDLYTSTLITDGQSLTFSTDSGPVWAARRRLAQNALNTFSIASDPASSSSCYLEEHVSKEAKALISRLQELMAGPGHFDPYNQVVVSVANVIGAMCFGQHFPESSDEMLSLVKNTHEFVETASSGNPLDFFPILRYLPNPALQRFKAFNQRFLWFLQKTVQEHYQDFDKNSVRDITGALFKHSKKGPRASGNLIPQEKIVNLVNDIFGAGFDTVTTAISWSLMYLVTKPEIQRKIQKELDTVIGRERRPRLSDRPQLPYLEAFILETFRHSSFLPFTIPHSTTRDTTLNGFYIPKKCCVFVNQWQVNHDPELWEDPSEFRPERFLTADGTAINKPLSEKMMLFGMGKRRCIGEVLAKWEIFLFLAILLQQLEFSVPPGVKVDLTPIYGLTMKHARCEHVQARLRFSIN

[24] = biological target: Cytochrome P450 2D6 (Homo sapiens, UniProt P10635); assay: Inhibition of human CYP2D6 using quinidine […]; type: ADME
Chain of Cytochrome P450 2D6 (P10635 whole entry): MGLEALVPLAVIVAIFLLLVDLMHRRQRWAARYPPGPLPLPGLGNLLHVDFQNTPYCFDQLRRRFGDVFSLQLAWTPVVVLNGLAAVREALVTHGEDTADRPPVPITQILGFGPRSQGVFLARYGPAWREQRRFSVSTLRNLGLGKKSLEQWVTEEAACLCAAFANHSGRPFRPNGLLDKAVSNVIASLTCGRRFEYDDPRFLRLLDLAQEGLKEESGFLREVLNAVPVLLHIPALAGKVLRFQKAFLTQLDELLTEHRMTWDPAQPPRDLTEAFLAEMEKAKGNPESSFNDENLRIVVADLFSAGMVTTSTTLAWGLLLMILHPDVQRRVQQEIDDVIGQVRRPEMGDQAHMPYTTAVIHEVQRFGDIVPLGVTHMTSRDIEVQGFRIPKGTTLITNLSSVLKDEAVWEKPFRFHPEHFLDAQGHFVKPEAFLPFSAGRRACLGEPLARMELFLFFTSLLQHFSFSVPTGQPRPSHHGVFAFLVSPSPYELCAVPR

[25] = system: cytochrome c oxidase subunit 2 DNA (mitochondrial DNA) levels; assay: Mitochondrial toxicity in human HepG2 cells assessed as inhibition of cytochrome c oxidase subunit 2 DNA levels at 25 uM measured on day 14 by RT-PCR method relative to nuclear beta-actin DNA levels; type: cell-based
[26] = system: nuclear DNA levels; assay: Cytotoxicity against human HepG2 cells assessed as inhibition of nuclear DNA levels at 25 uM measured on day 14 by RT-PCR method relative to nuclear beta-actin DNA levels; type: cell-based; settings: read-out: INH
[27] = system: HepG2; assay: Mitochondrial toxicity in human HepG2 cells assessed as cytochrome c oxidase subunit 2 DNA levels at 25 uM measured on day 14 by RT-PCR method relative to nuclear beta-actin DNA levels; type: cell-based; settings: hepg2, 25 µM
[28] = system: cytochrome c oxidase subunit 2 DNA (mitochondrial DNA) levels; assay: in vitro; settings: human, HepG2 cells
[29] = system: nuclear DNA levels; assay: in vitro; settings: human, HepG2 cells
[30] = Metabolic stability in human blood assessed as compound remaining at 2 uM after 2 hrs by LC-MS/MS method; type: ADME, tissue-based; settings: read-out: Stability

Work on CC(C)OC(=O)[C@H](C)N[P@](=O)(OC[C@H]1O[C@@H](n2ccc(=O)[nH]c2=O)[C@](C)(F)[C@@H]1O)Oc1ccccc1 [SOFOSBUVIR] yielded an EC50 [1] of 90 to 200 nM, an EC90 [1] of 300 to 500 nM and a CC50 at 96 h [2] of over 10 µM. The CC50 at 120 h [3] was over 100 µM, the CC50 at 96 h [4] was over 100 µM and the CC50 at 72 h [5] was over 100 µM. For the same compound, the IC50 [6] was 60 nM, the IC50 [7] was 60 nM and the IC50 [8] was 20 nM. For the same compound, the IC50 [9] was 40 nM, the IC50 [10] was 90 nM and the IC50 [11] was 70 nM. The EC50 [12] was 400 nM, the EC90 [12] was 1000 nM and the “Ratio EC50” value [13] was 4.4. The Selectivity ratio [14] was 3, the inhibition at 14 days, 50 µM [15] was under 1% and the cytotoxicity at 14 days, 50 µM [16] was 38.8%. It also gave an IC50 at 14 days [17] of over 50 µM, an IC50 [18] of over 50 µM and an Activity [19] of 176%. The Activity [20] was 255%, the IC50 [21] was 8.4 µM and the IC50 [22] was 60 µM. It also gave an IC50 [23] of over 100 µM, an IC50 [24] of over 100 µM and an inhibition at 14 days, 25 µM [25] of under 1%. For the same compound, the cytotoxicity at 14 days, 25 µM [26] was 38.3%, the Activity [27] was 187% and the inhibition at 14 days, 10 µM [28] was under 1%. For the same compound, the cytotoxicity at 14 days, 10 µM [29] was 7.3%.

For CC1CC(OC(=O)C(O)c2ccccc2)CC(C)(C)N1C (configuration not stated) [EUCATROPINE], the remaining at 2 h, 2 µM [30] was 19%.
